Results on five compounds are retold here after patent US7115614B2, “Method of treating brain ischemia” (Kyowa Hakko Kogyo Co., Ltd., priority 1997, dated 2006).

One data set relates to dopaminergic neurons. Kind of data set: Inhibitory action on neurodegeneration: MPTP HCl-treated mice, specific [3H]-mazindol binding in the striatum. The note with it: for amount of specifically bound [3H]-mazindol in the striatum: striatum removed after 1 week, mean ± standard error. It counts as in vivo, C57BL/6NCrj mice. The procedure:
The experiment was conducted according to the method of Sundstrom et al. (Brain. Res. Bulletin, 21, 257–263 (1988)).
In the experiment, 9- to 10-week-old male C57BL/6NCrj mice (supplied by Nippon Charles River) were used. During the period of preliminary breeding, the animals were kept in a laboratory at room temperature (22 to 24° C.) under 50 to 60% humidity and allowed food and water ad libitum.
1-Methyl-4-phenyl-1,2,3,6-tetrahydropyridine hydrochloride (abbreviated hereinafter as MPTP HCl (RBI Co., Ltd.)) was dissolved at a concentration of 4 mg/ml in physiological saline. A test compound was suspended at a concentration of 1 mg/ml in 0.3% […]. Each test group consisted of 9 to 10 animals, and a control group was intraperitoneally given physiological saline, and an MPTP HCl administration group and an MPTP HCl+test compound administration group were intraperitoneally given MPTP HCl (40 mg/kg).
After 1 hour, the control group and the MPTP HCl administration group were orally given 0.3% Tween, and the MPTP HCl+test compound administration group was orally given the test compound (10 mg/kg). After 1 week, the animals were decapitated, and the striatum was removed therefrom under cooling on ice. The striatum was stored in a deep freezer (<−80° C.) before a binding experiment.
A [^3H]-mazindol binding test was conducted in the following method. A striatum and 300 μl of buffer (120 mM NaCl, 5 mM KCl, 50 mM Tris, pH 7.9) were put into a micro-centrifuge tube and homogenized by portable homogenizer S-203 (manufactured by Ikeda Rika) and centrifuged at 15,000 rpm, 4° C. for 5 minutes (by KUBOTA 1710). The precipitates were suspended in 300 μl of buffer and then centrifuged again at 15,000 rpm, 4° C. for 5 minutes. The precipitates were suspended in 500 μl of buffer and then distributed into four test tubes in 100 μl portions. The remaining suspension (100 μl) was used for protein quantification. To determine non-specific binding, nomifensine maleate (RBI Co., Ltd.) (final concentration: 10 μM) as an inhibitor of dopamine uptake was added to two test tubes among the four test tubes. The binding reaction was initiated by adding 25 μl of [^3H]-mazindol (final concentration: 10 nM) (Spec. Act. 888 GBq/mmol, a product of NET). The mixture was incubated for 1 hour under cooling on ice, and the striatum homogenate was adsorbed onto a glass filter (Whatman, GF/B) in a cell harvester and washed three times with 5 ml of buffer. The radioactivity on the glass filter was measured with a liquid scintillation counter. For each striatum, specific [^3H]-mazindol binding was determined by subtracting the average of non-specific [^3H]-mazindol binding from the average of total [^3H]-mazindol binding.
Protein quantification was conducted by use of a Bio-Rad DC protein assay kit (Bio-Rad Co., Ltd.) with bovine serum albumin (Sigma Co., Ltd.) as a standard. Specific [^3H]-mazindol binding was expressed as the amount of bound [^3H]-mazindol per unit weight of protein, and the mean±standard error was determined for each group (10 animals).
In Table 2, the results are expressed in terms of the amount of specifically bound [^3H]-mazindol (fmol/mg protein) in the striatum.

For a further data set, the system named is dd-strain male mice. Kind of data set: Acute toxicity test (minimum lethal dose). In kind it is in vivo. To be noted: oral administration, mortality seven days after the administration. The text has this:
Test compounds were orally or intraperitoneally administered to groups of dd-strain male mice weighing 20±1 g, each group consisting of three mice.

Setting [1] is: MPTP HCl 40 mg/kg i.p., test compound 10 mg/kg orally after 1 hour.

SMILES strings stand for the structures. “And” between values parts separate entries of the source, which are not always exact repeats. Equal entries are not always repeated.

For the compound `CCn1c(=O)c2c(nc(/C=C/c3ccc(OC)c(OC)c3)n2C)n(CC)c1=O` [Compound 1, (E)-1,3-diethyl-8-(3,4-dimethoxystyryl)-7-methylxanthine], the “amount of specifically bound [3H]-mazindol in the striatum” value with dopaminergic neurons (setting [1]) is on record as 950.9 ± 54.1 fmol/mg protein. In the data set on dopaminergic neurons (statement in words, 10 mg/kg orally, MPTP HCl mice), the “reduction of the amount of specifically bound [3H]-mazindol by administration of MPTP HCl” value is “inhibited”. The “minimum lethal dose (MLD)” value with dd-strain male mice is on record as “greater than 1000 mg/kg”. For `CCCn1c(=O)c2c(nc(/C=C/c3ccc(OC)c(OC)c3)n2C)n(CCC)c1=O` [Compound 2, (E)-8-(3,4-dimethoxystyryl)-1,3-dipropyl-7-methylxanthine], in the data set on dopaminergic neurons (setting [1]), the “amount of specifically bound [3H]-mazindol in the striatum” value came to 784.8 ± 41.6 fmol/mg protein. The same measure, in the same setting: the same measure for `CCn1c(=O)c2c(nc(/C=C/c3cc(OC)c4c(c3)OCO4)n2C)n(CC)c1=O` [Compound 3, (E)-1,3-diethyl-8-(3-methoxy-4,5-methylenedioxystyryl)-7-methylxanthine]: 794.9 ± 28.5 fmol/mg protein; for `COc1cc(/C=C/c2nc3c(c(=O)n(C)c(=O)n3C)n2C)cc(OC)c1OC` [Compound 4, (E)-8-(3,4,5-trimethoxystyryl)caffeine]: 923.5 ± 51.1 fmol/mg protein. On to `CN1CC=C(c2ccccc2)CC1.Cl` [MPTP HCl, 1-Methyl-4-phenyl-1,2,3,6-tetrahydropyridine hydrochloride, reference compound], for which the “amount of specifically bound [3H]-mazindol in the striatum” value with dopaminergic neurons (MPTP HCl 40 mg/kg i.p. alone (0.3% Tween orally after 1 hour), hydrochloride) was 674.2 ± 38.1 fmol/mg protein and 616.3 ± 32.8 fmol/mg protein and 621.2 ± 27.7 fmol/mg protein.
